From publication PMC6136660 (Steroids, 2018)

Test system: white blood cells and subsets (lymphocytes, neutrophils, eosinophils)
Experiment: Differential white blood cell counts (immune suppression), MAD
Type: in vivo, human
Conditions: for Eosinophils: mean; for Lymphocytes / Neutrophil cell counts / White blood cells counts: mean±SEM, in 10^9/L (unit assumed)
Protocol: A single dose of pharmacological glucocorticoids results in rapid changes in peripheral blood white cell counts, with increased neutrophils, and decreased lymphocytes. Increases of neutrophils are from release from peripheral tissues, whereas loss of lymphocytes is due to induction of apoptosis. Differential white blood cell counts were studied in all Phase 1 MAD subjects. […]
placebo. White blood cells and subsets (lymphocytes, neutrophils, eosinophils) were measured at screening, day -1, pre-dose on days 1-14, day 17, and at follow-up (recovery). Day 1 (pre-dose), Day 2 (24 hr after first dose), Day 14 and follow-up (recovery) time points are graphed […]

[1] = MAD 9.0 mg/kg, Day 1 predose, baseline
[2] = MAD 9.0 mg/kg, Day 17 (3 days after last dose)
[3] = MAD 9.0 mg/kg, Day 21 follow-up
[4] = MAD 9.0 mg/kg, Day -1, baseline
[5] = MAD 9.0 mg/kg, Screening, baseline
[6] = MAD 20.0 mg/kg, Day 1 predose, baseline
[7] = MAD 20.0 mg/kg, Day 17 (3 days after last dose)
[8] = MAD 20.0 mg/kg, Day 21 follow-up
[9] = MAD 20.0 mg/kg, Day -1, baseline
[10] = MAD 20.0 mg/kg, Screening, baseline

## C[C@@H]1C[C@H]2[C@@H]3CCC4=CC(=O)C=C[C@]4(C)C3=CC[C@]2(C)[C@@]1(O)C(=O)CO [vamorolone]
[1]
  Eosinophils: 0.1 10^9/L
  Lymphocytes: 1.8 ± 0.4
  Neutrophil cell counts: 2.9 ± 0.9
  White blood cells counts: 5.2 ± 1.1
MAD 9.0 mg/kg, Day 2 predose
  Eosinophils: 0.13 10^9/L
  Lymphocytes: 2.5 ± 0.7
  Neutrophil cell counts: 3.7 ± 1.1
  White blood cells counts: 6.7 ± 1.2
MAD 9.0 mg/kg, Day 3 predose
  Eosinophils: 0.1 10^9/L
  Lymphocytes: 2.7 ± 0.7
  Neutrophil cell counts: 3.6 ± 0.7
  White blood cells counts: 6.8 ± 1.0
MAD 9.0 mg/kg, Day 7 predose
  Eosinophils: 0.1 10^9/L
  Lymphocytes: 2.6 ± 0.6
  Neutrophil cell counts: 3.4 ± 1.0
  White blood cells counts: 6.6 ± 1.3
MAD 9.0 mg/kg, Day 12 predose
  Eosinophils: 0.12 10^9/L
  Lymphocytes: 2.8 ± 0.6
  Neutrophil cell counts: 3.5 ± 0.9
  White blood cells counts: 6.8 ± 0.9
MAD 9.0 mg/kg, Day 14 predose
  Eosinophils: 0.13 10^9/L
  Lymphocytes: 2.6 ± 0.6
  Neutrophil cell counts: 3.6 ± 1.0
  White blood cells counts: 6.8 ± 1.3
[2]
  Eosinophils: 0.08 10^9/L
  Lymphocytes: 1.9 ± 0.5
  Neutrophil cell counts: 3.1 ± 0.7
  White blood cells counts: 5.5 ± 0.7
[3]
  Eosinophils: 0.12 10^9/L
  Lymphocytes: 1.8 ± 0.7
  Neutrophil cell counts: 2.9 ± 1.0
  White blood cells counts: 5.2 ± 1.1
[4]
  Eosinophils: 0.12 10^9/L
  Lymphocytes: 2.1 ± 0.7
  Neutrophil cell counts: 2.9 ± 0.6
  White blood cells counts: 5.5 ± 1.1
[5]
  Eosinophils: 0.1 10^9/L
  Lymphocytes: 1.7 ± 0.5
  Neutrophil cell counts: 3.0 ± 1.0
  White blood cells counts: 5.2 ± 1.3
[6]
  Eosinophils: 0.28 10^9/L
  Lymphocytes: 2.2 ± 0.6
  Neutrophil cell counts: 3.4 ± 1.1
  White blood cells counts: 6.3 ± 1.4
MAD 20.0 mg/kg, Day 2 predose
  Eosinophils: 0.17 10^9/L
  Lymphocytes: 2.9 ± 0.8
  Neutrophil cell counts: 4.5 ± 1.2
  White blood cells counts: 8.0 ± 1.3
MAD 20.0 mg/kg, Day 3 predose
  Eosinophils: 0.15 10^9/L
  Lymphocytes: 2.9 ± 0.7
  Neutrophil cell counts: 4.3 ± 1.2
  White blood cells counts: 7.9 ± 0.7
MAD 20.0 mg/kg, Day 7 predose
  Eosinophils: 0.15 10^9/L
  Lymphocytes: 3.2 ± 0.9
  Neutrophil cell counts: 4.4 ± 0.7
  White blood cells counts: 8.2 ± 1.0
MAD 20.0 mg/kg, Day 12 predose
  Eosinophils: 0.12 10^9/L
  Lymphocytes: 3.2 ± 0.4
  Neutrophil cell counts: 4.4 ± 0.4
  White blood cells counts: 8.3 ± 0.5
MAD 20.0 mg/kg, Day 14 predose
  Eosinophils: 0.16 10^9/L
  Lymphocytes: 3.1 ± 0.4
  Neutrophil cell counts: 4.6 ± 0.4
  White blood cells counts: 8.5 ± 0.4
[7]
  Eosinophils: 0.16 10^9/L
  Lymphocytes: 2.2 ± 0.3
  Neutrophil cell counts: 4.0 ± 0.3
  White blood cells counts: 6.8 ± 0.2
[8]
  Eosinophils: 0.26 10^9/L
  Lymphocytes: 2.2 ± 0.3
  Neutrophil cell counts: 4.0 ± 0.3
  White blood cells counts: 6.8 ± 0.4
[9]
  Eosinophils: 0.32 10^9/L
  Lymphocytes: 2.6 ± 0.5
  Neutrophil cell counts: 3.9 ± 1.1
  White blood cells counts: 7.3 ± 1.1
[10]
  Eosinophils: 0.25 10^9/L
  Lymphocytes: 2.0 ± 0.5
  Neutrophil cell counts: 3.5 ± 1.2
  White blood cells counts: 6.1 ± 1.1
Any MAD dose group
  white blood cell counts: No significant changes
